Experiments:
[1] = amiodarone 150 mg/kg/day co-administered with fluoxetine 10 mg/kg/day, 2 weeks, vs amiodarone alone
From the text: Heart, liver, kidney and lung tissues were collected at necropsy at 2 weeks.

[2] = molecular target: T1, cathepsin-B (Rattus norvegicus, UniProt P00787); assay: Fluorescence-based cathepsin-B activity assay (RR-AFC substrate) in liver and spleen homogenates of treated rats; format: in vivo, Sprague-Dawley rats
T1 construct: from tissue; host or cells: liver and spleen homogenates of Sprague-Dawley rats
Procedure: Cathepsin-B is a lysosomal protease that plays an important role in intracellular proteolysis. […] Liver and spleen homogenates were analyzed using a fluorescence-based assay that utilized the preferred cathepsin-B substrate sequence RR labeled with amino-4-trifluoromethyl coumarin (AFC). Samples that contain cathepsin-B cleave the synthetic substrate RR-AFC to release free AFC.

[3] = test system: di-22:6-BMP; assay: PL biomarker di-22:6-BMP in tissues and urine; format: in vivo, Sprague-Dawley rats; conditions: 2 weeks; for PL biomarker di-22:6-BMP in tissues (PL induced in both treatment groups): amiodarone 150 mg/kg/day alone or co-administered with fluoxetine 10 mg/kg/day, heart, liver, kidney, lung; for di-22:6-BMP biomarker in various tissues (PL induced): fluoxetine 10 mg/kg/day alone or co-administered with amiodarone 150 mg/kg/day
[4] = test system: liver, kidney, and heart; assay: Electron microscopic examination of tissue sections for phospholipidosis, 2-week repeat dose study; format: in vivo, Sprague-Dawley rats; conditions: co-administered bedaquiline 60 mg/kg/day and citalopram 70 mg/kg/day, 2 weeks
Procedure: FIG. 3 is a set of electron micrographs depicting the accumulation of lysosomal myeloid bodies, indicative of PL, in rat tissues. Sprague-Dawley rats received once daily oral (PO) co-administration of bedaquiline (60 mg/kg/day) and citalopram (70 mg/kg/day) for 2 weeks.
Sprague-Dawley rats were co-administered bedaquiline (60 mg/kg/day) and citalopram (70 mg/kg/day) in a 2-week repeat dose study. Tissue sections (liver, kidney, and heart) were collected at 2 weeks for electron microscopic examination and PL biomarker/proteomic evaluation.

[5] = molecular target: cathepsin B1 (Rattus norvegicus, UniProt P00787); conditions: Wibo and Poole 1974; cited from earlier work
[6] = Fluoxetine tissue concentrations, alone or co-administered with amiodarone; format: in vivo, Sprague-Dawley rats; conditions: fluoxetine 10 mg/kg/day co-administered with amiodarone 150 mg/kg/day, 2 weeks; tissues including brain
From the text: FIG. 8 is a set of graphs showing that PL-induction increased drug tissue concentrations to enhance in vivo drug efficacy.
PL was induced as indicated by an increase in the di-22:6-BMP biomarker in various tissues.

T1 sequence (P00787 80-333): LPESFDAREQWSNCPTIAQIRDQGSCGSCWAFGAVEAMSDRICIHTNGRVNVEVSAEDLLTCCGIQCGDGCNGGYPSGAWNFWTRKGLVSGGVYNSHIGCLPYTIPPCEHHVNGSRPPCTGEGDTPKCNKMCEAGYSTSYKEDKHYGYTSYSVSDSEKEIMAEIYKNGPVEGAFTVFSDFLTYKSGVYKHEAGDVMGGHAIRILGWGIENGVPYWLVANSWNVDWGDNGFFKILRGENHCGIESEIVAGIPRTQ
Sequence of cathepsin B1 (P00787 80-333): as above

CCCCc1oc2ccccc2c1C(=O)c1cc(I)c(OCCN(CC)CC)c(I)c1 [amiodarone]
concentration of amiodarone in the lung tissue [1]: decreased | activity of cathepsin B in rat liver and spleen ([2]; PL induced by amiodarone): slowed | levels of free AFC in tissues compared to controls (cathepsin-B activity) ([2]; amiodarone 150 mg/kg/day, 2 weeks, liver and spleen homogenates): lower | PL biomarker di-22:6-BMP in tissues (PL induced in both treatment groups) [3]: increase | di-22:6-BMP biomarker in various tissues (PL induced) [3]: increase

COc1nc2ccc(Br)cc2cc1[C@@H](c1ccccc1)[C@@](O)(CCN(C)C)c1cccc2ccccc12 [bedaquiline]
multi-lamellar lysosomal inclusions and electron dense deposits (indicative of drug-induced PL) [4]: treatment-dependent increase | biomarker di-22:6-BMP in rat tissues and urine ([3]; co-administered bedaquiline 60 mg/kg/day and citalopram 70 mg/kg/day): increase

CCN(CC)CCCC(C)Nc1ccnc2cc(Cl)ccc12 (centres unmarked) [chloroquine]
cathepsin B1 activities [5]: inhibited

CNCCC(Oc1ccc(C(F)(F)F)cc1)c1ccccc1 (centres unmarked) [fluoxetine]
fluoxetine concentrations in tissues, compared to fluoxetine alone [6]: increased | PL biomarker di-22:6-BMP in tissues (PL induced in both treatment groups) [3]: increase | di-22:6-BMP biomarker in various tissues (PL induced) [3]: increase

— US20200147070A1, “INDUCING PHOSPHOLIPIDOSIS FOR ENHANCING THERAPEUTIC EFFICACY” (Nextcea Inc., priority 2017, published 2020)
